Experimental data reported in US8361968B2 (Takeda Pharmaceutical Company Limited, priority 2002, dated 2013).
Square brackets hold non-standard residues; d marks the D form. Peptide text beside a SMILES is read from it. Arg(Me) = CNC(=N)NCCC[C@H](N)C(=O)O; 4Pal = N[C@@H](Cc1ccncc1)C(=O)O; azaGly = NNC(=O)O

Columns and labels:
hOT7T175 [1] = molecular target: T1, hOT7T175 (Homo sapiens, UniProt Q969F8, L364H); test: hOT7T175 receptor binding activity: binding inhibition of Cy-5-labeled metastin (40-54) on hOT7T175-expressed CHO cells; design: expressed in transfected cells; host or cells: CHO cells
T1 sequence (Q969F8 whole entry L364H): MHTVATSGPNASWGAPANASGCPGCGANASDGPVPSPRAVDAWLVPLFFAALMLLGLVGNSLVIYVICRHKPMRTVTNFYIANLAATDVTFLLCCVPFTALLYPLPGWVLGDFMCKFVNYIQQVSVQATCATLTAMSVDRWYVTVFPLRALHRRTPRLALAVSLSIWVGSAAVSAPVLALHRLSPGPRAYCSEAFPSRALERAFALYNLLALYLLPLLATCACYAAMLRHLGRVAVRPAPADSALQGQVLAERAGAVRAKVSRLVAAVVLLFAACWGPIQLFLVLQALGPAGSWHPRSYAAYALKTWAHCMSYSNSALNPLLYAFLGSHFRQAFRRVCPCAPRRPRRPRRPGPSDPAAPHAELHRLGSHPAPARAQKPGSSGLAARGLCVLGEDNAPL

in vitro = conditions: female, Balb/c, mouse, serum
hOT7T175 [2] = molecular target: T1, hOT7T175; test: Intracellular Ca ion level-increasing activity using FLIPR in hOT7T175/CHO; type: cell-based; design: expressed in transfected cells; host or cells: CHO/dhfr- cells, obtained from ATCC; conditions: relative, Metastin (1-54) = 1

Compound | IC50 (hOT7T175 [1]) | half-life at 100 µM (in vitro) | Specific Activity (intracellular Ca ion level-increasing activity) (hOT7T175 [2])
CNC(N)=NCCC[C@H](NC(=O)[C@H](CC(C)C)NC(=O)NNC(=O)[C@H](Cc1ccccc1)NC(=O)[C@H](CO)NC(=O)[C@H](CC(N)=O)NC(=O)[C@H](Cc1ccncc1)NC(=O)[C@H](CC(N)=O)NC(=O)[C@H](N)Cc1ccc(O)cc1)C(=O)N[C@@H](Cc1ccccc1)C(N)=O [Compound No. 286, D-Tyr-Asn-Pya(4)-Asn-Ser-Phe-AzaGly-Leu-Arg(Me)-Phe-NH2] (H-[dY]N[4Pal]NSF[azaGly]L[Arg(Me)]F-NH2) | 17 nM | 57.5 min | 
CC(C)C[C@H](NC(=O)CNC(=O)[C@H](Cc1ccccc1)NC(=O)[C@H](CO)NC(=O)[C@H](CC(N)=O)NC(=O)[C@H](Cc1c[nH]c2ccccc12)NC(=O)[C@H](CC(N)=O)NC(=O)[C@@H](N)Cc1ccc(O)cc1)C(=O)N[C@@H](CCCNC(=N)N)C(=O)N[C@@H](Cc1c[nH]c2ccccc12)C(N)=O [Compound No. 134] (H-YNWNSFGLRW-NH2) | 110 nM | 2.4 min | 30
CNC(=N)NCCC[C@H](NC(=O)[C@H](CC(C)C)NC(=O)CNC[C@H](Cc1ccccc1)NC(=O)[C@H](CO)NC(=O)[C@H](CC(N)=O)NC(=O)[C@H](Cc1c[nH]c2ccccc12)NC(=O)[C@H](CC(N)=O)NC(=O)[C@H](N)Cc1ccc(O)cc1)C(=O)N[C@@H](Cc1ccccc1)C(N)=O [Compound No. 308, D-Tyr-Asn-Trp-Asn-Ser-PheΨ(CH2NH)Gly-Leu-Arg(Me)-Phe-NH2] |  | 13.2 min | 2
CNC(N)=NCCC[C@H](NC(=O)[C@H](CC(C)C)NC(=O)CNC(=O)[C@H](Cc1ccccc1)NC(=O)[C@H](CO)NC(=O)[C@H](CC(N)=O)NC(=O)[C@H](Cc1c[nH]c2ccccc12)NC(=O)[C@H](CC(N)=O)NC(=O)[C@@H](N)Cc1ccc(O)cc1)C(=O)N[C@@H](Cc1ccccc1)C(N)=O [Compound No. 82] |  | 1.8 min | 
